Reference: US20230107642A1 (Erasca, Inc., priority 2020, published 2023)

Assay: Determination of total drug concentration in rat brain (BBB penetration)
Format: in vivo
Conditions: male SD rat, 2 mg/kg IV infusion for 4 hours, brain collected at end of 4 hours

| SMILES | BBB activity |
| --- | --- |
| C=CC(=O)N1[C@H](C)CN(c2nc(=O)n3c4c(c(-c5cc(I)c(F)cc5F)c(C(F)(F)F)cc24)SC[C@@H]3COC)C[C@@H]1C [Example 13-19] | + (Compounds that were measured as having a total concentration in the brain of at least 60 ng/g are indicated as “+”) |
| C=CC(=O)N1[C@H](C)CN(c2nc(=O)n3c4c(c(-c5cc(Cl)c(F)cc5F)c(C(F)(F)F)cc24)CC[C@@H]3CC2CCC3(CC2)COC3)C[C@@H]1C [Example 13-63] | − (Compounds that did not meet this threshold are indicated as “−”) |
| C=CC(=O)N1[C@H](C)CN(c2nc(=O)n3c4c(c(-c5ccc(F)cc5)c(C(F)(F)F)cc24)SC[C@H](c2ccccc2)C3)C[C@@H]1C [Example 13-47] | − (Compounds that did not meet this threshold are indicated as “−”) |
| C=CC(=O)N1C[C@H](C)N(c2nc(=O)n3c4c(c(-c5cc(Cl)c(F)cc5F)c(C(F)(F)F)cc24)SC[C@@H]3CN2C[C@@H]3C[C@H]2CO3)C[C@H]1C (atropisomer, axis not shown) [Example 13-71] | − (Compounds that did not meet this threshold are indicated as “−”) |
| C=CC(=O)N1CCN(c2nc(=O)n3c4c(c(-c5ccc(F)cc5F)c(Cl)cc24)SCCC3)[C@@H](C)C1 [Example 13-61] | − (Compounds that did not meet this threshold are indicated as “−”) |
| C=CC(=O)N1[C@H](C)CN(c2nc(=O)n3c4c(c(-c5cc(Cl)c(F)cc5F)c(C(F)(F)F)cc24)SC[C@@H]3CC2CCN(CC)CC2)C[C@@H]1C [Example 13-86] | − (Compounds that did not meet this threshold are indicated as “−”) |
| C=CC(=O)N1CCN(c2nc(=O)n3c4c(c(-c5c(C)cc(F)cc5F)c(C(F)(F)F)cc24)SC[C@@H]3COC)CC1 [Example 13-16] | + (Compounds that were measured as having a total concentration in the brain of at least 60 ng/g are indicated as “+”) |
